Test results as given in ChEMBL document CHEMBL3868595, “Plazomicin is effective in a non-human primate pneumonic plague model” (Bioorg Med Chem, 2016).

How the values were obtained:
[1] = test system: African green monkey; assay: Toxicity in African green monkey B6140 model infected with Yersinia pestis Colorado 92 assessed as serum lactate dehydrogenase level at 25 mg/kg, iv administered within 6 hrs post onset of sustained fever as 30 mins infusion for 10 days (reference value: 290 IU/L); format: organism-based; settings: chlorocebus sabaeus, in vivo
[2] = test system: African green monkey; assay: Toxicity in African green monkey 8067 model infected with Yersinia pestis Colorado 92 assessed as blood urea nitrogen level at 25 mg/kg, iv administered within 6 hrs post onset of sustained fever as 30 mins infusion for 10 days (reference value: 13 mg/dl); format: organism-based; settings: chlorocebus sabaeus, in vivo
[3] = test system: Yersinia pestis; assay: (§1) Antibacterial activity against Yersinia pestis Colorado 92 infected in African green monkey B6436 model assessed as bacterial burden in tracheobronchial lymph nodes at 25 mg/kg, iv administered within 6 hrs post onset of sustained fever as 30 mins infusion for 5 days (reference value: 7.7 10^9CFU/g); format: functional, CO92, Lymph node
[4] = test system: Yersinia pestis; assay: Antibacterial activity against Yersinia pestis Colorado 92 infected in African green monkey B6889 model assessed as bacterial burden in spleen at 6.25 mg/kg, iv administered within 6 hrs post onset of sustained fever as 30 mins infusion for 5 days (reference value: 1.6 10^9CFU/g); format: functional, CO92
[5] = Elimination half life in African green monkey blood at 35 mg/kg administered as iv infusion twice daily for 7 consecutive days measured on day 1 by LC-MS/MS analysis; format: ADME, organism-based; settings: chlorocebus aethiops, read-out: beta t1/2 (converted)
[6] = test system: Yersinia pestis; assay: Antibacterial activity against Yersinia pestis Colorado 92 infected in African green monkey 8047 model assessed as bacterial burden in kidney at 6.25 mg/kg, iv administered within 6 hrs post onset of sustained fever as 30 mins infusion for 10 days (reference value: 7.1 10^7CFU/g); format: functional, CO92
[7] = test system: Yersinia pestis; assay: Antibacterial activity against Yersinia pestis Colorado 92 infected in African green monkey B6415 model assessed as bacterial burden in brain at 25 mg/kg, iv administered within 6 hrs post onset of sustained fever as 30 mins infusion for 5 days (reference value: 1.9 10^6CFU/g); format: functional, CO92
[8] = test system: Yersinia pestis; assay: Antibacterial activity against Yersinia pestis Colorado 92 infected in African green monkey B6872 model assessed as bacterial burden in tracheobronchial lymph nodes at 25 mg/kg, iv administered within 6 hrs post onset of sustained fever as 30 mins infusion for 5 days (reference value: 7.7 10^9CFU/g); format: functional, organism-based; settings: CO92, Lymph node
[9] = AUC (0 to 24 hrs) in African green monkey blood at 25 mg/kg administered as iv infusion twice daily for 7 consecutive days measured on day 7 by LC-MS/MS analysis; format: ADME, organism-based; set-up: time < 24 hr, dose 25 mg/kg, route intravenous; settings: chlorocebus aethiops
[10] = test system: Yersinia pestis; assay: Antibacterial activity against Yersinia pestis Colorado 92 infected in African green monkey C2149 model assessed as bacterial burden in kidney at 6.25 mg/kg, iv administered within 6 hrs post onset of sustained fever as 30 mins infusion for 5 days (reference value: 7.1 10^7CFU/g); format: functional, CO92
[11] = test system: African green monkey; assay: Toxicity in African green monkey 7972 model infected with Yersinia pestis Colorado 92 assessed as blood urea nitrogen level at 25 mg/kg, iv administered within 6 hrs post onset of sustained fever as 30 mins infusion for 10 days (reference value: 13 mg/dl); format: organism-based; settings: chlorocebus sabaeus, in vivo
[12] = test system: Yersinia pestis; assay: Antibacterial activity against Yersinia pestis Colorado 92 infected in African green monkey B6672 model assessed as bacterial burden in kidney at 12.5 mg/kg, iv administered within 6 hrs post onset of sustained fever as 30 mins infusion for 5 days (reference value: 7.1 10^7CFU/g); format: functional, CO92
[13] = test system: Yersinia pestis; assay: Antibacterial activity against Yersinia pestis Colorado 92 infected in African green monkey B6127 model assessed as bacterial burden in liver at 25 mg/kg, iv administered within 6 hrs post onset of sustained fever as 30 mins infusion for 10 days (reference value: 5.2 10^8CFU/g); format: functional, CO92
[14] = test system: Yersinia pestis; assay: as §1, with “monkey B6127” for “monkey B6436”, “for 10” for “for 5”; format: functional, organism-based; settings: CO92, Lymph node
[15] = test system: African green monkey; assay: Toxicity in African green monkey assessed as effect on serum creatinine level at 25 mg/kg administered as iv infusion twice daily for 7 consecutive days measured on day 1 by LC-MS/MS analysis; format: organism-based; settings: chlorocebus sabaeus, in vivo
[16] = test system: African green monkey; assay: Toxicity in African green monkey B6140 model infected with Yersinia pestis Colorado 92 assessed as serum alanine aminotransferase level at 25 mg/kg, iv administered within 6 hrs post onset of sustained fever as 30 mins infusion for 10 days (reference value: 180 IU/L); format: organism-based; settings: chlorocebus sabaeus, in vivo
[17] = Toxicity in African green monkey B5994 model infected with Yersinia pestis Colorado 92 assessed as total white blood cell count at 25 mg/kg, iv administered within 6 hrs post onset of sustained fever as 30 mins infusion for 10 days (reference value: 8 10^3/microL); format: organism-based; settings: chlorocebus aethiops, in vivo
[18] = test system: Yersinia pestis; assay: Antibacterial activity against Yersinia pestis Colorado 92 infected in African green monkey B6106 model assessed as bacterial burden in kidney at 25 mg/kg, iv administered within 6 hrs post onset of sustained fever as 30 mins infusion for 5 days (reference value: 7.1 10^7CFU/g); format: functional, CO92
[19] = test system: Yersinia pestis; assay: Antibacterial activity against Yersinia pestis Colorado 92 infected in African green monkey B6469 model assessed as bacterial burden in liver at 25 mg/kg, iv administered within 6 hrs post onset of sustained fever as 30 mins infusion for 5 days (reference value: 5.2 10^8CFU/g); format: functional, organism-based; settings: CO92
[20] = test system: Yersinia pestis; assay: as §1, with “B6861” for “B6436”, “6.25” for “25”; format: functional, CO92, Lymph node
[21] = test system: African green monkey; assay: Toxicity in African green monkey B6428 model infected with Yersinia pestis Colorado 92 assessed as serum gamma glutamyl-transferase level at 25 mg/kg, iv administered within 6 hrs post onset of sustained fever as 30 mins infusion for 10 days (reference value: 31 IU/L); format: organism-based; settings: chlorocebus sabaeus, in vivo
[22] = test system: African green monkey; assay: Toxicity in African green monkey assessed as effect on serum creatinine level at 35 mg/kg administered as iv infusion twice daily for 7 consecutive days measured on day 7 by LC-MS/MS analysis; format: organism-based; settings: chlorocebus sabaeus, in vivo
[23] = test system: Yersinia pestis; assay: as §1, with “C2083” for “B6436”, “12.5” for “25”; format: functional, CO92, Lymph node
[24] = test system: African green monkey; assay: Toxicity in African green monkey B6291 model infected with Yersinia pestis Colorado 92 assessed as serum lactate dehydrogenase level at 25 mg/kg, iv administered within 6 hrs post onset of sustained fever as 30 mins infusion for 10 days (reference value: 212 IU/L); format: organism-based; settings: chlorocebus sabaeus, in vivo
[25] = Toxicity in African green monkey 7972 model infected with Yersinia pestis Colorado 92 assessed as total white blood cell count at 25 mg/kg, iv administered within 6 hrs post onset of sustained fever as 30 mins infusion for 10 days (reference value: 6.9 10^3/microL); format: organism-based; settings: chlorocebus aethiops, in vivo
[26] = test system: Yersinia pestis; assay: Antibacterial activity against Yersinia pestis Colorado 92 infected in African green monkey B6861 model assessed as bacterial burden in brain at 6.25 mg/kg, iv administered within 6 hrs post onset of sustained fever as 30 mins infusion for 5 days (reference value: 1.9 10^6CFU/g); format: functional, CO92

CN[C@@H]1[C@@H](O)[C@@H](O[C@@H]2[C@@H](O)[C@H](O[C@H]3OC(CNCCO)=CC[C@H]3N)[C@@H](N)C[C@H]2NC(=O)[C@@H](O)CCN)OC[C@]1(C)O [PLAZOMICIN]
Activity [1]: 379 IU/L | Activity [2]: 21 mg/dL | Activity [3]: 30 CFU/g | Activity [4]: 6.2 ×10⁶ CFU/g | half-life [5]: 1.7 h | Activity [6]: 32 CFU/g | Activity [7]: 39 CFU/g | Activity [8]: Below limit of detection | AUC at 24 h [9]: 208 µg·h/mL | Activity [10]: 16 CFU/g | Activity [11]: 24 mg/dL | Activity [12]: 25 CFU/g | Activity [13]: 44 CFU/g | Activity [14]: Below limit of detection | Activity [15]: 0.55 mg/dL | Activity [16]: 71 IU/L | Activity [17]: 4.5 ×10³ /uL | Activity [18]: 17 CFU/g | Activity [19]: Below limit of detection | Activity [20]: 1.2 ×10⁸ CFU/g | Activity [21]: 27 IU/L | Activity [22]: 0.6 mg/dL | Activity [23]: 8 ×10⁹ CFU/g | Activity [24]: 259 IU/L | Activity [25]: 7.6 ×10³ /uL | Activity [26]: 12 CFU/g
